Assay results as given in patent US9938290B2, “Tricyclic heterocyclic compounds as phosphoinositide 3-kinase inhibitors” (Karus Therapeutics Limited, priority 2009, dated 2018).

Tests used:
MCF7 (Breast Tumour) = test: In vitro inhibition of tumour cell proliferation, MCF7; format: cell-based
[1] = tested on: Rheumatoid Arthritis Synovial Fibroblast (RASF); test: In vitro inhibition of rheumatoid arthritis synovial fibroblast (RASF) proliferation; format: cell-based
PC3 (Prostate Tumour) = test: In vitro inhibition of tumour cell proliferation, PC3; format: cell-based
A549 (Lung Tumour) = test: In vitro inhibition of tumour cell proliferation, A549; format: cell-based
[2] = tested on: IL-17F production in hPBMCs; test: Inhibition of IL-17F production from anti-CD3-stimulated hPBMCs; format: cell-based, human; settings: hPBMCs stimulated with anti-CD3
Procedure: (§1) 2) Anti-Inflammatory Activity: Inhibition of the Production of Pro-Inflammatory Cytokines from Stimulated Human Peripheral Blood Mononuclear Cells (hPBMCs)
(§2) Compounds were tested at a concentration of 1 uM for cytokine release inhibition in hPBMCs stimulated with LPS (TNFα), PHA (IFNγ) and anti-CD3 (IL-17A, IL-17F, IL-21, IL-23): […]

[3] = tested on: IL-23 production in hPBMCs; test: Inhibition of IL-23 production from anti-CD3-stimulated hPBMCs; format: cell-based, human; settings: hPBMCs stimulated with anti-CD3
Procedure: as §1, §2

[4] = tested on: IFNγ production in hPBMCs; test: Inhibition of IFNγ production from PHA-stimulated hPBMCs; format: cell-based, human; settings: hPBMCs stimulated with PHA
Procedure: as §1, §2

[5] = tested on: IL-21 production in hPBMCs; test: Inhibition of IL-21 production from anti-CD3-stimulated hPBMCs; format: cell-based, human; settings: hPBMCs stimulated with anti-CD3
Procedure: as §1, §2

[6] = tested on: IL-17A production in hPBMCs; test: Inhibition of IL-17A production from anti-CD3-stimulated hPBMCs; format: cell-based, human; settings: hPBMCs stimulated with anti-CD3
Procedure: as §1, §2

[7] = tested on: TNFα production in hPBMCs; test: Inhibition of TNFα production from LPS-stimulated hPBMCs; format: cell-based, human; settings: hPBMCs stimulated with LPS
Procedure: as §1, §2

Compound | IC50 (MCF7 (Breast Tumour)) | IC50 [1] | IC50 (PC3 (Prostate Tumour)) | IC50 (A549 (Lung Tumour)) | % Inhibition of Proinflammatory Cytokine Production at 1 uM, IL-17F [2] | % Inhibition of Proinflammatory Cytokine Production at 1 uM, IL-23 [3] | % Inhibition of Proinflammatory Cytokine Production at 1 uM, IFNγ [4] | % Inhibition of Proinflammatory Cytokine Production at 1 uM, IL-21 [5] | % Inhibition of Proinflammatory Cytokine Production at 1 uM, IL-17A [6] | % Inhibition of Proinflammatory Cytokine Production at 1 uM, TNFα [7]
c1cc(-c2nc(N3CCOCC3)c3oc4ncc(CN5CCOCC5)cc4c3n2)c2cc[nH]c2c1 [K, 2-(1H-Indol-4-yl)-4-morpholin-4-yl-8-morpholin-4-ylmethyl-pyrido[3′,2′:4,5]furo[3,2-d]pyrimidine] | 352 nM | 3020 nM | 3340 nM | 682 nM | – | – | – | – | – | –
(E)-1-(4-Methyl-piperazin-1-yl)-3-[4-morpholin-4-yl-2-(1H-pyrrolo[2,3-b]pyridin-4-yl)-pyrido[3′,2′:4,5]furo[3,2-d]pyrimidin-8-yl]-propenone | – | – | – | – | 74% | 93% | 67% | 82% | 77% | 74%
